This passage reports Emax, efficacy and pest or weed control results from patent US20230060425A1, “FUSED BICYCLIC HETEROCYCLE DERIVATIVES AS PESTICIDES” (Bayer Aktiengesellschaft, priority 2019, published 2023).

Assay type in all cases: in vivo
Test [1] deals with Phaedon cochleariae. Kind of test: Phaedon cochleariae test on cabbage plants (PHAECO S). The following applies: 6 dai, read-out: % Efficacy. As for the experimental part:
Phaedon cochleariae Test (PHAECO S)
(§1) Solvent: 14 parts by weight of dimethylformamide
(§2) Emulsifier: 2 parts by weight of alkylaryl polyglycol ether
(§3) To produce a suitable active compound formulation, 1 part by weight of active compound is dissolved with the stated parts by weight of solvent and emulsifier and made up to the desired concentration with water. To produce further test concentrations, water is used for dilution. In the event that addition of ammonium salts or/and penetrants (rapeseed oil methyl ester) is required, these are each pipetted in at a concentration of 1000 ppm after the finished formulation solution has been diluted.
Cabbage plants (Brassica oleracea var. sabauda) are sprayed with an active compound formulation of the desired concentration and populated with 10 L2 larvae of the mustard beetle (Phaedon cochleariae).
After the desired time, the kill in % is determined. 100% means that all the larvae have been killed and 0% means that none of the larvae have been killed.

Test [2] has as its system Rhipicephalus sanguineus. The test is described as follows: Rhipicephalus sanguineus in vitro contact test with adult brown dog ticks. The following applies: application rate 5 μg/cm^2; after 48 h; ticks dead or moribund. As for the experimental part:
Rhipicephalus sanguineus—In Vitro Contact Tests with Adult Brown Dog Ticks
For the coating of the test tubes, 9 mg of active compound are first dissolved in 1 ml of acetone p.a. and then diluted to the desired concentration with acetone p.a. 250 μl of the solution are distributed homogeneously on the inner walls and the base of a 25 ml glass tube by turning and rocking on an orbital shaker (rocking rotation at 30 rpm for 2 h). With 900 ppm of active compound solution and internal surface area 44.7 cm^2, given homogeneous distribution, an area-based dose of 5 μg/cm^2 is achieved.
After the solvent has evaporated off, the tubes are populated with 5-10 adult dog ticks (Rhipicephalus sanguineus), sealed with a perforated plastic lid and incubated in a horizontal position in the dark at room temperature and ambient humidity. After 48 h, efficacy is determined. To this end, the ticks are knocked to the base of the tube and incubated on a hotplate at 45-50° C. for not more than 5 min. Ticks which remain motionless on the base or move in such an uncoordinated manner that they are unable to deliberately avoid the heat by climbing upwards are considered to be dead or moribund.
An efficacy of 100% means that all the ticks were dead or moribund. 0% efficacy means that none of the ticks were harmed.

Test [3] concerns Aphis gossypii. The test is described as follows: Aphis gossypii spray test (APHIGO S). The following applies: 144 h, 6 dat, read-out: % Efficacy.
In test [4] the test system is Ctenocephalides felis. Kind of test: Ctenocephalides felis oral test. The following applies: 48 h, application rate 100 ppm, in citrated cattle blood, after 2 days, read-out: efficacy (kill in %). In outline: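 Adult unfed cat fleas (~20 per chamber) fed through parafilm membrane on citrated cattle blood containing compound (DMSO formulation diluted in blood to test concentration). Kill (%) scored after 2 days; 100% = all fleas dead, 0% = none.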

Test [5] relates to Heliothis armigera. The test is described as follows: Heliothis armigera test (HELIAR S). The following applies: Helicoverpa armigera, 6 dai, read-out: % Efficacy. As for the experimental part:
Heliothis armigera Test (HELIAR S)
as §1, §2, §3
Cotton plants (Gossypium hirsutum) are sprayed with an active compound formulation of the desired concentration and, in each case after 12 and 19 days, populated with 5 caterpillars (L2) of the cotton bollworm (Heliothis armigera).
(§4) The kill is determined 6 days after the infection. 100% means that all the caterpillars have been killed and 0% means that none of the caterpillars have been killed.

For test [6], the system named is Myzus persicae. The test is described as follows: Myzus persicae spray test. The following applies: foliar, 120 h, application rate 100 g/ha, Chinese cabbage leaf discs, after 5 days, read-out: efficacy. In outline:
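Chinese cabbage leaf discs infested with all stages of Myzus persicae were sprayed with compound in acetone/DMF, diluted in water containing 1000 ppm emulsifier. Efficacy in % assessed after 5 days: 100% all aphids killed, 0% none killed.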

The test system of test [7] is Spodoptera frugiperda. The test is described as follows: Spodoptera frugiperda test on maize plants (SPODFR S). The following applies: 6 dai, read-out: % Efficacy. As for the experimental part: Spodoptera frugiperda Test (SPODFR S)
as §1, §2, §3
Maize plants (Zea mays) are sprayed with an active compound formulation of the desired concentration and, in each case after 5, 12 and 19 days, populated with 5 caterpillars (L2) of the fall armyworm (Spodoptera frugiperda).
as §4

Test [8] concerns Phaedon cochleariae. The test is described as follows: Phaedon cochleariae spray test. The following applies: foliar, 168 h, application rate 100 g/ha, Chinese cabbage leaf discs, after 7 days, read-out: efficacy. In outline: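 Chinese cabbage leaf discs sprayed with compound formulated in acetone/DMF and emulsifier-containing water, then infested with mustard beetle larvae after drying. Efficacy read after 7 days as % larvae killed.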

Like-named read-outs stand apart in the source and are kept apart here.

Take `CCS(=O)(=O)c1c(-c2nc3cc(C(F)(F)F)cnc3n2C)ncc2cc(Br)ccc12` [Example I-037, 7-Bromo-4-ethylsulfonyl-3-[3-methyl-6-(trifluoromethyl)imidazo[4,5-b]pyridin-2-yl]isoquinoline]: the Emax at 0.16 ppm in test [1] (120 h, infection 5 dat) amounted to 80%; in test [1] (288 h, infection 12 dat), 60%; in test [5] (288 h, infection 12 dat), 80%; in test [5] (456 h, infection 19 dat), 70%; in test [7] (120 h, infection 5 dat), 70%; in test [7] (288 h, infection 12 dat), 50%. The Emax at 0.8 ppm came to 100% in test [1] (288 h, 0.8 ppm, infection 12 dat); 100% in test [7] (288 h, infection 12 dat); 100% in test [7] (456 h, infection 19 dat). This compound displayed an efficacy in test [2] of 100%. The Emax at 4 ppm in test [3] came out at 65%. In addition, in test [4], the pest or weed control at 100 ppm turned out to be 100%. Also, the pest or weed control at 100 g/ha in test [6] and in test [8] was 100% throughout.
